Experimental data taken from publication PMC10977726 (PLOS ONE, 2024).
Where a SMILES comes first, the peptide text is derived from it. Bridges are numbered along the chain shown (N, C = ends).

What was measured:
[1] = 100% human serum, 0.2 mM DCP, 37°C, LC-MS, UV 220 nm peak area normalized to 0 h, three independent experiments
human IgG Fc = molecular target: T1, human IgG Fc (Homo sapiens, UniProt P01857); test: Phage competition ELISA for epitope mapping (various synthetic DCPs vs phage displaying one DCP); assay type: binding
T1 construct: Biotin-SP-ChromPure Human IgG, Fc fragment; purchased Jackson Immunoresearch Labs Inc. 009060008

human serum albumin = molecular target: T2, human serum albumin (Homo sapiens, UniProt P02768); test: Phage competition ELISA with phage displaying Hs-CHR-3; assay type: binding; details: Fig 4H
T2 construct: purchased Rockland Immunochemicals, Inc. 009–0633
Experimental: To analyze the competitive binding to the target protein for the synthetic DCP and its phage counterpart displaying the same DCP, 384-well plates were coated with 2 μg/mL of neutravidin in PBS overnight at 4°C. The plates were blocked with PBS containing 0.5% BSA and incubated with biotinylated human IgG Fc or serum albumin for 20 min at room temperature. Serial diluted synthetic DCP was pre-incubated with phage for 30 min at room temperature then the mixture was added to the 384 well plates for 30 min at room temperature. The plates were washed and incubate with anti-M13 antibody (1:10,000, HRP conjugated, Creative Diagnostics, cat# CAB-655M) for 30 min at room temperature, followed by washing, development and quenching (1 M H3PO4). The absorbance at 450 nm was recorded to calculate the IC50 values.
To further map the binding epitopes of the Ig-DCPs on human IgG Fc, we developed a protein A-human IgG Fc competition ELISA. […] The findings imply Hs-CHR-1 and -3 bind to a similar epitope on human serum albumin, which partially overlap with the SA21 binding site (Fig 4I).

T2 sequence (P02768 25-609): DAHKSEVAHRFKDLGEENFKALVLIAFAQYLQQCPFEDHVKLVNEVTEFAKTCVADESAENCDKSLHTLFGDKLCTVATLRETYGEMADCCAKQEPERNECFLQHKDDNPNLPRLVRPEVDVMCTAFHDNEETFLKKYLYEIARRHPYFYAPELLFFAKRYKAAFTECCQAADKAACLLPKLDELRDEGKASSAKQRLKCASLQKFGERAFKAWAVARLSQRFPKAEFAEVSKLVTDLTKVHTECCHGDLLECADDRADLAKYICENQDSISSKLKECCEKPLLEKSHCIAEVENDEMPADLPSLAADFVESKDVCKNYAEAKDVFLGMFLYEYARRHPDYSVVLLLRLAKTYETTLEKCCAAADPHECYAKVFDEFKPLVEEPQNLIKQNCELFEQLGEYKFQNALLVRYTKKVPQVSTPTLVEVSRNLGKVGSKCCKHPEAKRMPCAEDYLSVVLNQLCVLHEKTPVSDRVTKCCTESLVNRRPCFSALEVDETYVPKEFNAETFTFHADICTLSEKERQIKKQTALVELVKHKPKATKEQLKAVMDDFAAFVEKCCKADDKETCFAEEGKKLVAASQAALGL

## CC[C@H](C)[C@@H]1NC(=O)[C@H](CO)NC(=O)[C@H]([C@@H](C)CC)NC(=O)[C@H](CO)NC(=O)[C@H](CO)NC(=O)[C@@H]2CSSC[C@@H]3NC(=O)[C@H](CO)NC(=O)CNC(=O)[C@H]([C@@H](C)O)NC(=O)[C@H](CSSC[C@H](NC(=O)[C@@H](N)CCC(=O)O)C(=O)N[C@@H](CCCCN)C(=O)NCC(=O)N[C@@H](CCCCN)C(=O)NCC(=O)N[C@@H](C)C(=O)N[C@@H](CCCCN)C(=O)N2)NC(=O)[C@H](CSSC[C@@H](C(=O)O)NC(=O)[C@H](CCCCN)NC(=O)CNC(=O)[C@H](CO)NC(=O)[C@H](CCCNC(=N)N)NC3=O)NC(=O)[C@H](Cc2c[nH]cn2)NC(=O)[C@H](C)NC(=O)[C@H](CC(=O)O)NC(=O)[C@H](Cc2c[nH]cn2)NC1=O [Ig-CON-5]
[1]
  loss of peptides after 24 h: 40–50%
Human IgG Fc; Fig 4D
  inhibition of interaction between biotinylated hIgG Fc and phage displaying Ig-AMP-1: potently inhibited
Human IgG Fc; Fig S15
  inhibition of interaction between human IgG Fc and phage displaying Ig-CON-5: potently inhibited

## CC[C@H](C)[C@H](NC(=O)[C@H](CC(C)C)NC(=O)[C@@H](N)CCCNC(=N)N)C(=O)N[C@@H](CCC(=O)O)C(=O)N[C@@H](CC(=O)O)C(=O)N[C@H](C(=O)N[C@H]1CSSC[C@@H](C(=O)N[C@@H](CC(C)C)C(=O)N[C@@H](Cc2c[nH]c3ccccc23)C(=O)N[C@@H](CCC(=O)O)C(=O)N[C@@H](CC(=O)O)C(=O)N[C@@H](CC(=O)O)C(=O)O)NC(=O)CNC(=O)[C@H](Cc2c[nH]c3ccccc23)NC(=O)[C@H](CCCNC(=N)N)NC(=O)[C@@H]2CCCN2C(=O)[C@H](CC(C)C)NC1=O)[C@@H](C)CC [SA21] (H-RLIEDICLPRWGCLWEDD-OH; disulfide 7-13 (inferred); N-terminus and C-terminus assumed)
Human serum albumin
  inhibition of interaction between biotinylated human serum albumin and phage displaying Hs-CHR-3: partially disrupted
